In one experiment the target is T1, AR(L702H) (Homo sapiens, UniProt P10275, L702H).
T1 construct: expressed in transfected cells; host or cells: DU145
T1 sequence (P10275 1-920 L702H): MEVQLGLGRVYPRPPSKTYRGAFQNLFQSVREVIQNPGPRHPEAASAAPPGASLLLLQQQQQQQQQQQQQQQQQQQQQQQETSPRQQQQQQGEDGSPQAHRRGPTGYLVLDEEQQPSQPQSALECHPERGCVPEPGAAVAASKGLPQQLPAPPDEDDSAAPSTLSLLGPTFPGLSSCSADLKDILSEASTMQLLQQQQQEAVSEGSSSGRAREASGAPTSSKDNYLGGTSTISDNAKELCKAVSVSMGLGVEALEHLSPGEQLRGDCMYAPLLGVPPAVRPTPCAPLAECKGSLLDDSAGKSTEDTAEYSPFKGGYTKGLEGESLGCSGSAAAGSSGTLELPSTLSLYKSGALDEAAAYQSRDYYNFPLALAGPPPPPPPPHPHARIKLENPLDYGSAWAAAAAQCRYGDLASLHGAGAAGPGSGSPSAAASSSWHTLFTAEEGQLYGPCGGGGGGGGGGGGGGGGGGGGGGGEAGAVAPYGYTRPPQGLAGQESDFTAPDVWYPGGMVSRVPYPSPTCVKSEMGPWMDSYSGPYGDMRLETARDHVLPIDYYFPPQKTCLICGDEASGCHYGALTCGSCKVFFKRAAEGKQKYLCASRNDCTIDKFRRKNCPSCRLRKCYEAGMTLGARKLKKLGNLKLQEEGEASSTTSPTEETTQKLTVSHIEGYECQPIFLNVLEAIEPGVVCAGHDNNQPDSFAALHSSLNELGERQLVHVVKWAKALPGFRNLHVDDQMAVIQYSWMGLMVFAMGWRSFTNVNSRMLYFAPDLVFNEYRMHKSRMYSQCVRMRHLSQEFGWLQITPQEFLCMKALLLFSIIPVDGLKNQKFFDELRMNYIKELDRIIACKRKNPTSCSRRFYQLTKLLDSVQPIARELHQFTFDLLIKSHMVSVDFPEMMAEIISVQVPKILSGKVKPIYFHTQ
Put plainly: Degradation of ectopic Myc-tagged AR mutant in DU145 cells (western blot). The experiment is classed as cell-based. The note with it: 10 μM, 24 hours. From the text: (§1) pLenti4/TO/Flag-AR and pLenti4/TO/Flag-AR(∆LBD) plasmids are as described previously. To generate pLenti4/TO/Flag-AR-V7 plasmid, the DNA fragment of AR-V7 was amplified from pEGFP-C1-AR V7, a gift from Michael A Mancini (Addgene plasmid # 86856), and inserted into the pLenti4/TO plasmid carrying a N-terminal Flag tag between BamH1 and XhoI. The AR(L702H) and AR(H875Y) mutants were generated by site-directed mutagenesis of pCMV-Myc-AR, which is previously constructed and described in [22]. Primers used in the cloning and mutagenesis are: […]
(§2) Cell lysis, Western blotting, and AR ubiquitination were performed as described in [17]. […]
(§3) Fig. 1 ITRI-148 induces degradation of both AR and AR-V7 proteins in CRPC cells. […] AR-V7 expression was detected using an anti-Flag antibody. […] An N-terminal AR antibody was used to detect both full-length AR and LBD-truncated variants (AR-V(ΔLBD)) in CWR22Rv1 cells, while AR-V7 was detected using an AR-V7-specific antibody. DC₅₀ values were calculated from normalized band intensities, and Dₘₐₓ represents the maximal degradation achieved at 10 μM ITRI-148. (D) Immunofluorescence staining of AR after 24 or 48 hours of ITRI-148 treatment, detected using an N-terminal AR antibody. […] Quantified AR levels are as indicated. […]
On the technique in general: In western blotting, separated proteins are transferred to a membrane and probed.

Another experiment addresses T2, AR(H875Y) (Homo sapiens, UniProt P10275, H875Y).
T2 construct: expressed in transfected cells; host or cells: DU145
T2 sequence (P10275 1-920 H875Y): T1 sequence (P10275 1-920 L702H) with H702L, H875Y
Described as above. The experiment is classed as cell-based. The note with it: 10 μM, 24 hours.
Text: as §1, §2, §3

Where a chain is given by its changes, count along the chain named.

For `O=C1CCC(N2C(=O)c3cccc(NCC(=O)N4CCC(N5CCC(C#Cc6ccc(C7CCN(C8=Nn9c(nnc9C(F)(F)F)CC8)CC7)cc6)CC5)CC4)c3C2=O)C(=O)N1` (centres unmarked) [ITRI-148], the “degradation of Myc-tagged AR mutant L702H” value on AR(L702H) is given as “degraded”. The “degradation of Myc-tagged AR mutant H875Y” value at AR(H875Y) was “degraded”.

The values above are taken from PMC12661400, “Oral bioavailable ITRI-148 degrades androgen receptor variants and overcomes antiandrogen resistance in advanced prostate cancer” (Neoplasia (New York, N.Y.), 2025).
